This note sets out measurements from patent publication US20010003780A1, “Retinoid antagonists and uses thereof” (priority 1997, published 2001).

The subject of the experiment is trauma-induced caecal adhesion in rats. Kind of experiment: trauma-induced caecal adhesion model in rats. It is filed as in vivo, rat. The method, then:
Models of peritoneal adhesions induced by surgical trauma have been used to predict the clinical activity of a number of marketed anti-adhesion barrier devices. One such model is the trauma-induced caecal adhesion model in rats. A representative retinoid antagonist compound of the present invention, 4-{{(E)-(5,6-dihydro-5,5-dimethyl-8-phenyl)-2-naphthalenyl]vinyl]benzoic acid of the formula [drawing 49]
Adult female Wistar rats were used in our studies. The trauma induction was carried out using aseptic conditions in animals anesthetized with a mixture of Ketamine (100 mg/kg) and Rompun (10 mg/kg) given IP. A 2 cm midline abdominal incision was made and the caecum was exteriorized. Both sides of the caecum were abraded with a dry gauze until there was evidence of punctate bleeding. After replacing the organ in the abdominal cavity, the incision was closed. Trauma to the caecum produces fibrous scar tissue or adhesions to adjacent organs, peritoneal wall, or the omentum. Animals were treated with test compound orally or by intravenous injection or intra-abdominally by direct instillation into the peritoneal cavity. Oral treatments were administered once daily for up to 7 days. Intra-abdominal treatments were applied once post-trauma and just prior to wound closure.
On the seventh postoperative day, the animals were sacrificed and the peritoneal cavity was exposed and examined for adhesions. Three criteria that were used to evaluate the adhesions are: severity of the adhesions, extent or area of the ceacum involved with adhesions and the number of adhesions formed in each animal. Statistical analysis of the data was performed using students' T test. The following scoring system was used:
The test compound described above administered by the intra-abdominal route was compared to some other representative retinoid antagonists of the present invention. A single dose of compound in 3 ml volume was instilled over the traumatized caecum and abdominal cavity prior to closing the incision. Seven days later the animals were sacrificed and the abdominal cavity was examined for adhesions to the caecum.

Where [1] appears, read: administered orally for 7 days, 10 and 15 mg/kg, compared to the vehicle control (FIG. 1).

With `CC1=C(/C=C/C(C)=C/C=C/C(C)=C/C(=O)O)C(C)(C)CCC1` [All-trans retinoic acid, all-trans retinoic acid, reference compound], the “effect on trauma induced adhesions (number, severity and extent of caecal adhesions)” value (orally administered, at twice the dose of the test compound (Table 1)) is on record as “no significant effect”.
Regarding `CC1(C)CC=C(c2ccccc2)c2cc(/C=C/c3ccc(C(=O)O)cc3)ccc21` [compound A, 4-{{(E)-(5,6-dihydro-5,5-dimethyl-8-phenyl)-2-naphthalenyl]vinyl]benzoic acid], under setting [1], the “number of adhesions per animal” value is reported as “significantly reduced” and the “severity of adhesions per animal” value was “significantly reduced”. Besides, the “severity of caecal adhesions” value (single intra-abdominal application at 5 mg in 3 ml, examined seven days later (Table 2)) is recorded as “effectively reduced”. For the same compound, the “number of adhesions formed” value (single intra-abdominal application at 5 mg in 3 ml, examined seven days later, compared to the vehicle control (Table 2)) is listed as “significantly reduced”.
